Test results reported in article PMC9234961 (Journal of Medicinal Chemistry, 2022).
Like-named read-outs stand apart in the source and are kept apart here.

How the values were obtained:
kinases (468) [1] = target: kinases (468) (Homo sapiens, UniProt P49760); settings: CLK2; 1000 nM
kinases (468) [2] = target: kinases (468) (Homo sapiens, UniProt P49840); settings: GSK3A; 1000 nM
kinases (468) [3] = target: kinases (468) (Homo sapiens, UniProt P50750); settings: CDK9; 1000 nM
kinases (468) [4] = target: kinases (468) (Homo sapiens, UniProt P00533, L858R); settings: EGFR(L858R); 1000 nM
kinases (468) [5] = target: kinases (468) (Homo sapiens, UniProt Q96PN8); settings: kinase TSSK3 (Entrez TSSK3); compound concentration 1000 nM
kinases (468) (Homo sapiens, UniProt Q96PN8), sequence (Q96PN8 whole entry): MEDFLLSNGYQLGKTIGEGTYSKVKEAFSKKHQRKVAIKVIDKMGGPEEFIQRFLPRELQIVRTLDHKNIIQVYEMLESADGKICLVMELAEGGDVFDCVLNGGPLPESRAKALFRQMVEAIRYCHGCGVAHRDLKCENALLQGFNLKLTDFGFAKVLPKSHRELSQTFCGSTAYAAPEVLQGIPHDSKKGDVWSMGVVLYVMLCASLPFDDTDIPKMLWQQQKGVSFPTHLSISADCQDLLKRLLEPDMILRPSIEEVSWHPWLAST

kinases (468) [6] = target: kinases (468) (Homo sapiens, UniProt O14757); settings: CHEK1; 1000 nM
kinases (468) [7] = target: kinases (468) (Homo sapiens, UniProt Q9NYL2); settings: kinase ZAK (Entrez ZAK); compound concentration 1000 nM
kinases (468) [8] = target: kinases (468) (Homo sapiens, UniProt P29597); settings: compound concentration 1000 nM
kinases (468) (Homo sapiens, UniProt P29597), sequence (P29597 whole entry): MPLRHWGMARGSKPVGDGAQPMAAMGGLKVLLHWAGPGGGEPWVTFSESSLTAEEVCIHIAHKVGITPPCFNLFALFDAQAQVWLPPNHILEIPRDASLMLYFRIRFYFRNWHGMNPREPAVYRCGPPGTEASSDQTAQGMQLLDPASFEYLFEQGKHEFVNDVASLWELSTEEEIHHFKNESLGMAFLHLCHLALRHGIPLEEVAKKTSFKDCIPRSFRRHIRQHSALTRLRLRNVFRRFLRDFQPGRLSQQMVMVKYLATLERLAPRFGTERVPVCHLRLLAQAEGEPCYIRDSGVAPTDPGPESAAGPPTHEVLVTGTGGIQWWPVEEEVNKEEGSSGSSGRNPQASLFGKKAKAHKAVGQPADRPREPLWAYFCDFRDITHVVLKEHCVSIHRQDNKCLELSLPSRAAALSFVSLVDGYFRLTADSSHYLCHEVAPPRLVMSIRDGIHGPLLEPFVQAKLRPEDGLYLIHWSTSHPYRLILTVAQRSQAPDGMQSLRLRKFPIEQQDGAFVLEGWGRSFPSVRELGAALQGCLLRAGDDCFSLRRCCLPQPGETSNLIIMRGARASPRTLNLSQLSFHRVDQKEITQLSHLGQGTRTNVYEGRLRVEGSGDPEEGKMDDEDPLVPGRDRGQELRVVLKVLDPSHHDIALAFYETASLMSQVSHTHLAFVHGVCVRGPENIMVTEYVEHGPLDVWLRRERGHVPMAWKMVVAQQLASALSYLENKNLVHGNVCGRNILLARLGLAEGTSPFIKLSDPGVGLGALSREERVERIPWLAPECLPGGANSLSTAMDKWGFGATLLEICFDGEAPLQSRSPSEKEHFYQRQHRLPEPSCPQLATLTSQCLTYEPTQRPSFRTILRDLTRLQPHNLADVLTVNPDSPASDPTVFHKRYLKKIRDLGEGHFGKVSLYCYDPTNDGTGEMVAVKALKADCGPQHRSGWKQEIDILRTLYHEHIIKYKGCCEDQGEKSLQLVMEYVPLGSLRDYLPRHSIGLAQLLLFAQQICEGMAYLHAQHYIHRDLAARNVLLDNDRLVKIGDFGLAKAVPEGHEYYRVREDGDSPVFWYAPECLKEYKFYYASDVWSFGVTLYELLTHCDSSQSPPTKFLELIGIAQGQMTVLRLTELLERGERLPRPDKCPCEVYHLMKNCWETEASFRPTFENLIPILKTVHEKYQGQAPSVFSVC

kinases (468) [9] = target: kinases (468) (Homo sapiens, UniProt P51451); settings: BLK; 1000 nM
kinases (468) [10] = target: kinases (468) (Homo sapiens, UniProt P51956); settings: NEK3; 1000 nM
kinases (468) (Homo sapiens, UniProt P51956), sequence (P51956 whole entry): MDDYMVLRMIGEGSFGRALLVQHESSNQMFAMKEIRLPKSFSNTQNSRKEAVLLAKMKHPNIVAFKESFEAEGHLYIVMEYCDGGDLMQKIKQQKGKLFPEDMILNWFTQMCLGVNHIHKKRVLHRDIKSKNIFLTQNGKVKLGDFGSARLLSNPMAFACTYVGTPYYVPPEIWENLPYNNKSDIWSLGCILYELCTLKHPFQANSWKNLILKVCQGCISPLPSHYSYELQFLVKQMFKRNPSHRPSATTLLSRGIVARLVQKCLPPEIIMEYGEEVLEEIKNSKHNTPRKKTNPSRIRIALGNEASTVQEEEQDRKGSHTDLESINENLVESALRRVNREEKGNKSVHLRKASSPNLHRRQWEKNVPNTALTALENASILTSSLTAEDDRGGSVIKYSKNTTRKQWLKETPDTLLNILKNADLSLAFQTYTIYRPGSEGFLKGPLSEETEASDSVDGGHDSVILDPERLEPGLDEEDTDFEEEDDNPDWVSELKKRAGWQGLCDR

kinases (468) [11] = target: kinases (468) (Homo sapiens, UniProt O15075); settings: DCAMKL1 (DCLK1); 1000 nM
kinases (468) [12] = target: kinases (468) (Homo sapiens, UniProt Q14289); settings: PYK2 (PTK2B); 1000 nM
kinases (468) [13] = target: kinases (468) (Homo sapiens, UniProt Q9BVS4); settings: kinase RIOK2 (Entrez RIOK2); compound concentration 1000 nM
kinases (468) [14] = target: kinases (468) (Homo sapiens, UniProt Q8IVW4); settings: CDKL3; 1000 nM
kinases (468) [15] = target: kinases (468) (Homo sapiens, UniProt O14936); settings: CASK; 1000 nM
kinases (468) [16] = target: kinases (468) (Homo sapiens, UniProt O43683); settings: BUB1; 1000 nM
kinases (468) [17] = target: kinases (468) (Homo sapiens, UniProt Q9Y2U5); settings: MAP3K2; 1000 nM
kinases (468) [18] = target: kinases (468) (Homo sapiens, UniProt P25098); settings: GRK2 (ADRBK1); 1000 nM
kinases (468) (Homo sapiens, UniProt P25098), sequence (P25098 whole entry): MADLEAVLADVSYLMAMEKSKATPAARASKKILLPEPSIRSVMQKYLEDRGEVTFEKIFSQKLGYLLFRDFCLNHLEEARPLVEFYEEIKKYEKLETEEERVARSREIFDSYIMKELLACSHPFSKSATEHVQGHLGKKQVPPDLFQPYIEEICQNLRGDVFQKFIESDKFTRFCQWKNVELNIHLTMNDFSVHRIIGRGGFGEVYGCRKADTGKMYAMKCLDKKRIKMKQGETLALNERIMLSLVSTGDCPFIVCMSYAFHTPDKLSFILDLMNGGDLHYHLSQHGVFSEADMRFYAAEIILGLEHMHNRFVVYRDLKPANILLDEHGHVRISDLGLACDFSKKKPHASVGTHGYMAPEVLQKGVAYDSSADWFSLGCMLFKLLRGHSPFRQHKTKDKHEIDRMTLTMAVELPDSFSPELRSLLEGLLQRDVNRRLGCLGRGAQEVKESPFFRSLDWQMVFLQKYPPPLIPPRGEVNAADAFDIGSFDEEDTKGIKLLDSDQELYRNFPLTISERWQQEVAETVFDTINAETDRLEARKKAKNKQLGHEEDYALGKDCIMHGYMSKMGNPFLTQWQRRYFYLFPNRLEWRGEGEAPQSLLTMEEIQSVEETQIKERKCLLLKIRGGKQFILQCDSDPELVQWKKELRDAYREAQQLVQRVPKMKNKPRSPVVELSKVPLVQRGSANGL

kinases (468) [19] = target: kinases (468) (Homo sapiens, UniProt Q9UM73); settings: ALK; 1000 nM
kinases (468) [20] = target: kinases (468) (Homo sapiens, UniProt P42336, Q546K); settings: PIK3CA(Q546K); 1000 nM
kinases (468) [21] = target: kinases (468) (Homo sapiens, UniProt Q13188); settings: MST2 (STK3); 1000 nM
kinases (468) [22] = target: kinases (468) (Homo sapiens, UniProt P08069); settings: IGF1R; 1000 nM
kinases (468) (Homo sapiens, UniProt P08069), sequence (P08069 31-1367): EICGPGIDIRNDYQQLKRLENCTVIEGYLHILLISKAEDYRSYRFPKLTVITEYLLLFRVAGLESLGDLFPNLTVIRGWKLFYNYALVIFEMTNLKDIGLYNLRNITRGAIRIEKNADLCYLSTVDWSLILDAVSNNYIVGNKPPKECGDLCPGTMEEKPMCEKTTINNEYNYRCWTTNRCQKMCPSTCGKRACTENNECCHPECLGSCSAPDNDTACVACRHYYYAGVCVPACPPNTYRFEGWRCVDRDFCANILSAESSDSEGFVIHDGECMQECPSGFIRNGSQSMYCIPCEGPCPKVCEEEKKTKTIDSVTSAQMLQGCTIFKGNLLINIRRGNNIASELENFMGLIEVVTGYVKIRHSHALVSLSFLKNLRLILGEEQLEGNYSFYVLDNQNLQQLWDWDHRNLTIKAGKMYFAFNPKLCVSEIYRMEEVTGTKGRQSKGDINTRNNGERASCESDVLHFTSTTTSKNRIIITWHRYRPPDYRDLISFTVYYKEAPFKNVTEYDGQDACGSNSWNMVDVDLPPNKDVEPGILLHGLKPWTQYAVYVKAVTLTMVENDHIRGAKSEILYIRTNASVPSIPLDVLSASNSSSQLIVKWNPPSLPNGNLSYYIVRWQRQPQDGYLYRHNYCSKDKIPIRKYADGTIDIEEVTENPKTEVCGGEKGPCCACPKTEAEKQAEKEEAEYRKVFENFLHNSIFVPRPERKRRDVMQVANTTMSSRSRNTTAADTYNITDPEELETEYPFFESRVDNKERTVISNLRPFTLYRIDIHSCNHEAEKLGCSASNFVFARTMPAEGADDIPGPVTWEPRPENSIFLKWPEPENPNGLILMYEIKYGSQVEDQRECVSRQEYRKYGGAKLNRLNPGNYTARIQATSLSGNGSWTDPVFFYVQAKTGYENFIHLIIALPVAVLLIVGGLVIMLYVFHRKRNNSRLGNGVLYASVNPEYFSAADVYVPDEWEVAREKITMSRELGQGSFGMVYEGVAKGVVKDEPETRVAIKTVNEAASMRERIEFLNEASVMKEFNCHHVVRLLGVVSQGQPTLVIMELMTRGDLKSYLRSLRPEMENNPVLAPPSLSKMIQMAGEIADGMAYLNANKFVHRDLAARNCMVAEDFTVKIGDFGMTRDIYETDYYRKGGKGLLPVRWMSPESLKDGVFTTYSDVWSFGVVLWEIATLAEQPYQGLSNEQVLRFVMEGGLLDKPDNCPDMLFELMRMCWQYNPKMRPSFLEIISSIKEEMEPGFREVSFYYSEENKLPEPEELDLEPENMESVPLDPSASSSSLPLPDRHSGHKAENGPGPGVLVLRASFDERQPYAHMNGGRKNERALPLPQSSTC

kinases (468) [23] = target: kinases (468) (Homo sapiens, UniProt P24941); settings: CDK2; 1000 nM
kinases (468) [24] = target: kinases (468) (Homo sapiens, UniProt P48730); settings: CSNK1D; 1000 nM
kinases (468) [25] = target: kinases (468) (Homo sapiens, UniProt Q9Y3S1); settings: kinase WNK2 (Entrez WNK2); compound concentration 1000 nM
kinases (468) [26] = target: kinases (468) (Homo sapiens, UniProt O43318); settings: kinase TAK1 (Entrez MAP3K7); compound concentration 1000 nM
kinases (468) [27] = target: kinases (468) (Homo sapiens, UniProt Q00532); settings: CDKL1; 1000 nM
kinases (468) (Homo sapiens, UniProt Q00532), sequence (Q00532 whole entry): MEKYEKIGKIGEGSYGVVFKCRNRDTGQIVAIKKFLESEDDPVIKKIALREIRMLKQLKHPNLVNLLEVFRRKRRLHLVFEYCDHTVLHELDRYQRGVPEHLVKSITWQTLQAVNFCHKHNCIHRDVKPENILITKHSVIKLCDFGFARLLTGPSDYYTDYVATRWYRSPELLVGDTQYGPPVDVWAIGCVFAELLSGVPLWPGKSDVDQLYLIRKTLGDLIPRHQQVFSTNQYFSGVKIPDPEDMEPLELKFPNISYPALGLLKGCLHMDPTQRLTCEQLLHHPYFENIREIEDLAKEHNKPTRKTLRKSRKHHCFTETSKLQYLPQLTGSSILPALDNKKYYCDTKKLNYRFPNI

kinases (468) [28] = target: kinases (468) (Homo sapiens, UniProt Q8NEV4); settings: MYO3A; 1000 nM
kinases (468) [29] = target: kinases (468) (Homo sapiens, UniProt Q04759); settings: PRKCQ; 1000 nM
kinases (468) [30] = target: kinases (468) (Homo sapiens, UniProt Q14012); settings: CAMK1; 1000 nM
kinases (468) (Homo sapiens, UniProt Q14012), sequence (Q14012 whole entry): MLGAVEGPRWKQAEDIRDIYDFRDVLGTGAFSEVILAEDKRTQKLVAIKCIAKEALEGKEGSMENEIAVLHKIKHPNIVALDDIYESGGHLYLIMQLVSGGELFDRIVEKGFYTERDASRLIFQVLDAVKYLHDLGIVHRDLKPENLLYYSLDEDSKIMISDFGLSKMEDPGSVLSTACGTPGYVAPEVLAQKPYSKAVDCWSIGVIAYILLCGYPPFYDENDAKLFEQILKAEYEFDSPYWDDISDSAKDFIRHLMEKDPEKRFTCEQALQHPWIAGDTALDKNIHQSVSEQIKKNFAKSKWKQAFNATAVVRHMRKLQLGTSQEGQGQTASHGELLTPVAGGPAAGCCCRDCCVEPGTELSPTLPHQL

kinases (468) [31] = target: kinases (468) (Homo sapiens, UniProt P08581, M1250T); settings: MET(M1250T); 1000 nM
kinases (468) [32] = target: kinases (468) (Homo sapiens, UniProt Q8TBX8); settings: PIP5K2C (PIP4K2C); 1000 nM
kinases (468) [33] = target: kinases (468) (Homo sapiens, UniProt P29320); settings: EPHA3; 1000 nM
kinases (468) [34] = target: kinases (468) (Homo sapiens, UniProt P32298); settings: GRK4; 1000 nM
kinases (468) [35] = target: kinases (468) (Homo sapiens, UniProt P36888, R834Q); settings: FLT3(R834Q); 1000 nM

SMILES: C[C@H]1C[C@@H](O)CN(c2ncc(Cl)c(Nc3ccc4c(c3)c3c(c(=O)n4C)OCC(F)(F)[C@H](C4CC4)N3)n2)C1 [CCT373566_9A]
- Percent Control (kinases (468) [1]): 68%
- Percent Control (kinases (468) [2]): 95%
- Percent Control (kinases (468) [3]): 96%
- Percent Control (kinases (468) [4]): 100%
- Percent Control (kinases (468) [5]): 72%
- Percent Control (kinases (468) [6]): 100%
- Percent Control (kinases (468) [7]): 98%
- Percent Control (kinases (468) [8]; kinase TYK2(JH1domain-catalytic) (Entrez TYK2)): 97%
- Percent Control (kinases (468) [8]; kinase TYK2(JH2domain-pseudokinase) (Entrez TYK2)): 89%
- Percent Control (kinases (468) [9]): 99%
- Percent Control (kinases (468) [10]): 98%
- Percent Control (kinases (468) [11]): 100%
- Percent Control (kinases (468) [12]): 98%
- Percent Control (kinases (468) [13]): 100%
- Percent Control (kinases (468) [14]): 100%
- Percent Control (kinases (468) [15]): 92%
- Percent Control (kinases (468) [16]): 94%
- Percent Control (kinases (468) [17]): 95%
- Percent Control (kinases (468) [18]): 41%
- Percent Control (kinases (468) [19]): 98%
- Percent Control (kinases (468) [20]): 89%
- Percent Control (kinases (468) [21]): 100%
- Percent Control (kinases (468) [22]): 100%
- Percent Control (kinases (468) [23]): 96%
- Percent Control (kinases (468) [24]): 99%
- Percent Control (kinases (468) [25]): 100%
- Percent Control (kinases (468) [26]): 100%
- Percent Control (kinases (468) [27]): 97%
- Percent Control (kinases (468) [28]): 100%
- Percent Control (kinases (468) [29]): 100%
- Percent Control (kinases (468) [30]): 89%
- Percent Control (kinases (468) [31]): 100%
- Percent Control (kinases (468) [32]): 82%
- Percent Control (kinases (468) [33]): 85%
- Percent Control (kinases (468) [34]): 91%
- Percent Control (kinases (468) [35]): 100%
